Laboratory results from EP0316212B1 (priority 1987, dated 1989).
Like-named read-outs stand apart in the source and are kept apart here.

Experiments:
Cellules de rate = test: Proliferation of mouse spleen cells (3H-thymidine incorporation); format: cell-based, souris; conditions: for inhibition at 200 µg/mL: read-out: pourcentage d'augmentation (+) ou d'inhibition (-) de la prolifération
Description: (§1) Les anticorps utilisés sont des anticorps monoclonaux (AM) naturels (N5-12, N5-17, MO-1, 62-1, D-23) et proviennent d'hybridomes préparés par fusion des cellules de rate de souris n'ayant reçu aucune immunisation au préalable ni aucune stimulation mitogénique, avec le myélome de souris X63-Ag8. Les hybridomes TNP11 et TNP9 proviennent de fusion des cellules de rate de souris immunisées avec du Ficoll-TNP. Ils ont été maintenus en culture dans le milieu RPMI complet contenant 10% de sérum de veau foetal. Les hybridomes ont été injectés à des souris Balb/c préalablement traitées au pristane dans le but d'obtenir des ascites. Les AM ont été utilisés en tant que surnageants de culture ou en tant qu'ascites ou après isolement par chromatographie d'affinité sur une colonne de DNP-Sépharose. Ces anticorps ont été testés par test immunoenzymatique sur différents antigènes immobilisés sur des plaques de polystyrène et révélés par un anticorps anti-Ig de souris couplé à la β-galactosidase.
(§2) Le TNP a été couplé à la sérumalbumine bovine (BSA) par la méthode de Little & Eisen : 1ml de BSA à 20mg/ml dans le tampon carbonate-bicarbonate, 0,1M, pH 9,5, est ajouté à 1ml d'une solution d'acide trinitrobenzène sulfonique à 2 mg/ml dans le même tampon. La réaction est arrêtée après 30 à 120 minutes selon la substitution voulue par élimination de l'excès de réactifs sur échangeur d'ions (Dowex 1 x 4) puis dialyse. Des préparations de BSA substituée avec soit 14 ou 30 molécules de TNP par molécule de BSA (TNP₁₄-BSA ou TNP₃₀-BSA) ont été utilisées.
(§3) Le DNP-Glycine (DNP-Gly) et le DNP-Lysine (DNP-Lys) proviennent des Laboratoires Sigma et sont solubilisés directement dans le milieu de culture.
(§4) Les cellules proviennent de rate ou de thymus de souris. Les souris sont tuées par dislocation cervicale et leur rate ou leur thymus prélevé stérilement sont déposés dans du milieu RPMI. Les cellules sont dissociées, lavées une fois avec du milieu puis les globules rouges sont lysés au chlorure d'ammonium (0,9%) pendant 1 minute à froid puis les cellules sont relavées dans le milieu complet.
(§5) Le milieu de culture utilisé est du RPMI 1640 contenant du sérum de veau foetal (5%), du pyruvate de sodium (1mM), de la L-glutamine (1mM), du 2-mercaptoethanol (0,05 mM), de la pénicilline (100»g/ml) et de la streptomycine (50»g/ml).
(§6) 2x10⁵ cellules de chaque population cellulaire ou 4x10⁵ de cellules de rate non fractionnées sont distribuées sous un volume final de 200»l dans des boîtes de culture de 96 puits à fond plat en présence ou non des différents stimulateurs (ou mitogènes)(40»g/ml de lipopolysaccharide W Salmonella typhosa 2»g/ml de concanavaline A, ou des surnageants de culture contenant les anticorps monoclonaux à différentes dilutions ou une solution de TNP-BSA à des concentrations finales allant de 200ng à 200»g/ml). Les cultures sont effectuées pendant 48 à 96 heures à 37°C dans une atmosphère de 5% de CO2.
Six à huit heures avant la fin de la culture, 100»l de surnageant sont prélevés de chaque puits de culture afin d'être testés quant à leur contenu en anticorps. 10»l d'une solution de ³H-thymidine (activité spécifique = […]) à 50 »Ci/ml sont ajoutés à la culture qui est ensuite poursuivie. Les cellules de chaque puits sont collectées sur du papier filtre à l'aide d'un collecteur automatique et, après sèchage, les filtres sont comptés dans un liquide scintillant.

Cellules B = test: Proliferation of mouse B cells (3H-thymidine incorporation); format: cell-based, souris; conditions: for inhibition at 200 µg/mL: B-cell, read-out: pourcentage d'augmentation (+) ou d'inhibition (-) de la prolifération
Description: as §1, §2, §3, §4
Les sous-populations de cellules B ou T sont ensuite séparées comme suit : • Sous-population T : les cellules T sont obtenues à partir de la population de cellules de la rate par élimination des cellules portant des Ig à leur surface (sous-population B) sur des anticorps anti-Ig de souris immobilisés soit sur des billes magnétiques (Magnogel)® soit sur des boites de Pétri. • Sous-population B : les cellules B sont obtenues après détachement mécanique des supports dur lesquels elles étaient fixées par l'intermédiaire des anticorps anti-Ig (après l'isolement des cellules T), ou après élimination de la sous-population des cellules T de la population totale des cellules de rate par un traitement avec un anticorps anti-cellules T suivi de complément de cobaye. • Thymocytes : les thymocytes sont dissociés dans le RPMI et les cellules isolées sont lavées dans le milieu complet avant d'être mises en culture.
as §5, §6
Six à huit heures avant la fin de la culture, 100»l de surnageant sont prélevés de chaque puits de culture afin d'être testés quant à leur contenu en anticorps. […]

[1] = system: virus de la chorioméningite lymphocytaire (CML); test: organism not typed; format: cell-based; conditions: for % Inhibition: préincubés avec les cellules L929
[2] = system: virus de la chorioméningite lymphocytaire (CML); test: organism not typed; format: cell-based; conditions: for % Inhibition: ajoutés après l'infection virale
[3] = system: VSV (Vesicular Stomatitis Virus); test: microbe, parasite or virus in culture; format: cell-based
[4] = system: EMCV (Encephalomyocarditis Virus); test: microbe, parasite or virus in culture; format: cell-based
[5] = 200µg/ml, LPS* (mitogène ajouté après 48 heures avec le dérivé NP)
[6] = 200µg/ml, conA* (mitogène ajouté après 48 heures avec le dérivé NP)
[7] = 12 (µg/ml), LPS* (mitogène ajouté après 48 heures)
[8] = 12 (µg/ml), conA* (mitogène ajouté après 48 heures)
[9] = 50 (µg/ml), LPS* (mitogène ajouté après 48 heures)
[10] = 50 (µg/ml), conA* (mitogène ajouté après 48 heures)
[11] = 3 (µg/ml), LPS* (mitogène ajouté après 48 heures)
[12] = 200µg/ml, LPS* (mitogène ajouté après 48 heures)
[13] = Vesicular stomatitis virus, L929

O=C(O)CNc1ccc([N+](=O)[O-])cc1[N+](=O)[O-] [DNP-glycine, DNP-Glycine]
inhibition at 200 µg/mL (Cellules de rate; [5]): -60% | inhibition at 200 µg/mL (Cellules de rate; 200µg/ml, M (milieu seul)): -64% | inhibition at 200 µg/mL (Cellules de rate; [6]): -50% | pourcentage d'augmentation (+) ou d'inhibition (-) de la prolifération (Cellules de rate; [7]): 0% | pourcentage d'augmentation (+) ou d'inhibition (-) de la prolifération (Cellules de rate; 12 (µg/ml), M (milieu seul)): -10% | pourcentage d'augmentation (+) ou d'inhibition (-) de la prolifération (Cellules de rate; [8]): -30% | pourcentage d'augmentation (+) ou d'inhibition (-) de la prolifération (Cellules de rate; [9]): -20% | pourcentage d'augmentation (+) ou d'inhibition (-) de la prolifération (Cellules de rate; 50 (µg/ml), M (milieu seul)): -30% | pourcentage d'augmentation (+) ou d'inhibition (-) de la prolifération (Cellules de rate; [10]): 0% | pourcentage d'augmentation (+) ou d'inhibition (-) de la prolifération (Cellules B; [11]): -7% | pourcentage d'augmentation (+) ou d'inhibition (-) de la prolifération (Cellules B; 3 (µg/ml), M (milieu seul)): -25% | pourcentage d'augmentation (+) ou d'inhibition (-) de la prolifération (Cellules B; [7]): -40% | pourcentage d'augmentation (+) ou d'inhibition (-) de la prolifération (Cellules B; 12 (µg/ml), M (milieu seul)): -50% | pourcentage d'augmentation (+) ou d'inhibition (-) de la prolifération (Cellules B; [9]): -64% | pourcentage d'augmentation (+) ou d'inhibition (-) de la prolifération (Cellules B; 50 (µg/ml), M (milieu seul)): -60% | inhibition at 200 µg/mL (Cellules B; [12]): -80% | inhibition at 200 µg/mL (Cellules B; 200µg/ml, M (milieu seul)): -90% | inhibition at 10 µg/mL ([1]; L929): 25% | inhibition at 30 µg/mL ([1]; L929): 80% | inhibition at 60 µg/mL ([1]; L929): 15% | inhibition at 120 µg/mL ([1]; L929): 30% | inhibition at 240 µg/mL ([1]; L929): 25% | inhibition at 480 µg/mL ([1]; L929): 55% | inhibition at 10 µg/mL [2]: 10% | inhibition at 30 µg/mL [2]: 17% | inhibition at 60 µg/mL [2]: 34% | inhibition at 120 µg/mL [2]: 36% | inhibition at 240 µg/mL [2]: 54% | inhibition at 480 µg/mL [2]: 63% | inhibition du virus (result in words) ([2]; ajouté à la culture cellulaire après l'infection virale): peut inhiber le virus même s'il est ajouté à la culture cellulaire après l'infection virale | inhibition at 30 µg/mL [3, 13]: 0% | inhibition at 70 µg/mL [3, 13]: 0% | inhibition at 150 µg/mL [3, 13]: 6% | inhibition at 300 µg/mL [3, 13]: 38% | inhibition at 600 µg/mL [3, 13]: 47% | inhibition at 1200 µg/mL [3, 13]: 68% | inhibition at 2400 µg/mL [3, 13]: 41% | minimal effective concentration ([3]; Vesicular stomatitis virus, L929, 72 h, read-out: a un effet jusqu'à une concentration de): 1200 µg/mL | minimal effective concentration ([4]; Cardiovirus A, L929, 24 h, read-out: séroneutralise jusqu'à une concentration de): 600 µg/mL | inhibition at 30 µg/mL ([4]; Cardiovirus A, L929, 0,03 mg/ml): 0% | inhibition at 300 µg/mL ([4]; Cardiovirus A, L929, 0,3 mg/ml): 32% | inhibition at 600 µg/mL ([4]; Cardiovirus A, L929, 0,6 mg/ml): 62% | inhibition at 70 µg/mL ([4]; Cardiovirus A, L929, 0,07 mg/ml): 0% | inhibition at 150 µg/mL ([4]; Cardiovirus A, L929, 0,15 mg/ml): 20% | inhibition at 1200 µg/mL ([4]; Cardiovirus A, L929, 1,2 mg/ml): 78%

TNP-BSA
pourcentage d'augmentation (+) ou d'inhibition (-) de la prolifération (Cellules de rate; [5]): +30% | pourcentage d'augmentation (+) ou d'inhibition (-) de la prolifération (Cellules de rate; 200µg/ml, M (milieu seul)): +50% | pourcentage d'augmentation (+) ou d'inhibition (-) de la prolifération (Cellules de rate; [6]): +46% | pourcentage d'augmentation (+) ou d'inhibition (-) de la prolifération (Cellules de rate; [7]): 0% | pourcentage d'augmentation (+) ou d'inhibition (-) de la prolifération (Cellules de rate; 12 (µg/ml), M (milieu seul)): +10% | pourcentage d'augmentation (+) ou d'inhibition (-) de la prolifération (Cellules de rate; [8]): +28% | pourcentage d'augmentation (+) ou d'inhibition (-) de la prolifération (Cellules de rate; [9]): +20% | pourcentage d'augmentation (+) ou d'inhibition (-) de la prolifération (Cellules de rate; 50 (µg/ml), M (milieu seul)): +30% | pourcentage d'augmentation (+) ou d'inhibition (-) de la prolifération (Cellules de rate; [10]): +30% | pourcentage d'augmentation (+) ou d'inhibition (-) de la prolifération (Cellules B; [12]): +18% | pourcentage d'augmentation (+) ou d'inhibition (-) de la prolifération (Cellules B; 200µg/ml, M (milieu seul)): +100% | pourcentage d'augmentation (+) ou d'inhibition (-) de la prolifération (Cellules B; [11]): 0% | pourcentage d'augmentation (+) ou d'inhibition (-) de la prolifération (Cellules B; 3 (µg/ml), M (milieu seul)): 0% | pourcentage d'augmentation (+) ou d'inhibition (-) de la prolifération (Cellules B; [7]): 0% | pourcentage d'augmentation (+) ou d'inhibition (-) de la prolifération (Cellules B; 12 (µg/ml), M (milieu seul)): 0% | pourcentage d'augmentation (+) ou d'inhibition (-) de la prolifération (Cellules B; [9]): 0% | pourcentage d'augmentation (+) ou d'inhibition (-) de la prolifération (Cellules B; 50 (µg/ml), M (milieu seul)): +50% | % Inhibition ([1]; 0.12 mg/ml): 0% | % Inhibition ([1]; 0.25 mg/ml): 22% | % Inhibition ([1]; 0.5 mg/ml): 48% | % Inhibition ([1]; 1 mg/ml): 63% | % Inhibition ([2]; 0.5 mg/ml): 0% | % Inhibition ([2]; 1mg/ml): 17% | % Inhibition ([3]; 0,03 mg/ml): 0% | % Inhibition ([3]; 0,5 mg/ml): 12% | % Inhibition ([3]; 0,06 mg/ml): 0% | % Inhibition ([3]; 0,12 mg/ml): 0% | % Inhibition ([3]; 0,25 mg/ml): 0% | % Inhibition ([3]; 1,0 mg/ml): 15% | % Inhibition ([3]; 2,0 mg/ml): 24% | % Inhibition ([4]; 0,03 mg/ml): 0% | % Inhibition ([4]; 0,5 mg/ml): 8% | % Inhibition ([4]; 0,06 mg/ml): 0% | % Inhibition ([4]; 0,12 mg/ml): 0% | % Inhibition ([4]; 0,25 mg/ml): 0% | % Inhibition ([4]; 1,0 mg/ml): 4% | % Inhibition ([4]; 2,0 mg/ml): 14%
